Source: patent US20240150377A1, “MODULATORS OF CYSTIC FIBROSIS TRANSMEMBRANE CONDUCTANCE REGULATOR” (VERTEX PHARMACEUTICALS INCORPORATED, priority 2020, published 2024)
Like-named read-outs stand apart in the source and are kept apart here. Values belong to the compound of their own block, whether it stands above or below them.

Target: T1, CFTR (Homo sapiens, UniProt P13569, DEL508-508)
T1 construct: endogenous in cells; host or cells: primary human bronchial epithelial cells from CF subjects (F508del/MF-HBE), differentiated at air-liquid interface
T1 sequence (P13569 with tags, fused parts or gaps DEL508-508): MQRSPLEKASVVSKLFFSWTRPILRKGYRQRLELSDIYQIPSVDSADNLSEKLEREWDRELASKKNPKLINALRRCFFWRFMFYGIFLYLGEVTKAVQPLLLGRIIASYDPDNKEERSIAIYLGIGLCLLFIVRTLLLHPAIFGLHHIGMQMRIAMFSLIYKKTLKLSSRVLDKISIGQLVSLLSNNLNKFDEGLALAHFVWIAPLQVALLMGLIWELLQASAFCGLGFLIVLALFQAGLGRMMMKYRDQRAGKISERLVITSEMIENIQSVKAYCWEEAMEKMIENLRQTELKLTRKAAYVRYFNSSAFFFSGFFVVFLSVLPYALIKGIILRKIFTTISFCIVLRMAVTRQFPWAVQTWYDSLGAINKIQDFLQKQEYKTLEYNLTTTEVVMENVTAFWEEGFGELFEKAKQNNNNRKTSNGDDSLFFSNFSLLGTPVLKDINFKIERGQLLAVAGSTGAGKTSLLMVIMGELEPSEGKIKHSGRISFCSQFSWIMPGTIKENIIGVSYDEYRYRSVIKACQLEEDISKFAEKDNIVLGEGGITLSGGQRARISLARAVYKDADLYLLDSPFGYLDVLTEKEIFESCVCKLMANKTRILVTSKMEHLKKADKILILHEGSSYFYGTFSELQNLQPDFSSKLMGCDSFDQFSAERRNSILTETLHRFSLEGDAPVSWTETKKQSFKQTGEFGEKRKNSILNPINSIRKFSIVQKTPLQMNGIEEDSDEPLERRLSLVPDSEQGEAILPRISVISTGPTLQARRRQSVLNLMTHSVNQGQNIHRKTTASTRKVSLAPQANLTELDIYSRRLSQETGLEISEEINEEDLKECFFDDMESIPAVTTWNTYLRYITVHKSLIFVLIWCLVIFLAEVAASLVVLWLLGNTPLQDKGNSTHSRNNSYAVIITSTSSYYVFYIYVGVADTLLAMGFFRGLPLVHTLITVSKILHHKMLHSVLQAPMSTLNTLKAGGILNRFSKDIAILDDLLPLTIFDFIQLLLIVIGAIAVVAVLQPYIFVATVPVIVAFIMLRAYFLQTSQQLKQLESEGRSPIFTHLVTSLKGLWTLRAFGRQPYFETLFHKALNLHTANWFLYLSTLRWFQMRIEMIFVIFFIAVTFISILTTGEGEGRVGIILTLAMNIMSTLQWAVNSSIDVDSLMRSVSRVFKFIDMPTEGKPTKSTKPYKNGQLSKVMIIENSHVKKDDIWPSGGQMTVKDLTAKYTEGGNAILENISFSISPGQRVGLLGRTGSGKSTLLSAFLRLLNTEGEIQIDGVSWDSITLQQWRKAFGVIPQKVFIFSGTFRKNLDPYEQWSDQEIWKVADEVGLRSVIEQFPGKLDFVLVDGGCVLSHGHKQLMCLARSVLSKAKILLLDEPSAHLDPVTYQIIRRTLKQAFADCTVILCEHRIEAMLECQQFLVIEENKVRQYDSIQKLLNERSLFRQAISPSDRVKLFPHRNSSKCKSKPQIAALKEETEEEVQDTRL
Test: HBE assay: Ussing chamber assay of CFTR-mediated short-circuit currents
Type: cell-based
Settings: for EC50: read-out: HBE EC50
Procedure, shortened: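 CFTR-mediated Isc (μA/cm²) equals the peak response to apical 20 μM forskolin minus the residual after a 20 μM each BPO/GlyH-101/CFTR inhibitor 172 cocktail, recorded in Ussing chambers at Vhold 0 mV, 37 °C, pH 7.4, with 30 μM apical amiloride. Cells were F508del/MF HBE cultures preincubated 18-24 h with corrector (concentration range or 10 μM) plus 1 μM ivacaftor in 20% human serum.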

[1] = Table 12, read-out: HBE Activity at 10 μM (%)
[2] = Table 12, read-out: HBE Max Activity (%)
[3] = Table 11, read-out: HBE Max Activity (%)
[4] = Table 10, read-out: HBE activity at 10 (μM) (%)
[5] = Table 10, read-out: HBE Max activity (%)

SMILES: Cc1cccc(C)c1-c1cc2nc(n1)NS(=O)(=O)c1cccc(c1)C(=O)N(Cc1cc(C3CCOCC3)[nH]n1)[C@H](CC(C)(C)C)CO2 [Compound 449]
- activation at 10 µM [1]: > 600%

SMILES: Cc1cccc(C)c1-c1cc2nc(n1)NS(=O)(=O)c1cccc(c1)C(=O)N(CC1(C(=O)O)CC1)[C@H](CC(C)(C)C)CO2 [Compound 450]
- activation at 10 µM [1]: 30 to 60%
- EC50 (Table 12): < 1000 nM

SMILES: Cc1cccc(C)c1-c1cc2nc(n1)NS(=O)(=O)c1cccc(c1)C(=O)N(CC(=O)O)[C@H](CC(C)(C)C)CO2 [Compound 453]
- EC50 (Table 12): 3000 to 30000 nM
- Emax [2]: > 60%

SMILES: Cc1cccc(C)c1-c1cc2nc(n1)NS(=O)(=O)c1cccc(c1)C(=O)N(Cc1ccn(CC(C)C)n1)[C@H](CC(C)(C)C)CO2 [Compound 454]
- EC50 (Table 12): < 1000 nM
- Emax [2]: > 60%

SMILES: Cc1cccc(C)c1-c1cc2nc(n1)NS(=O)(=O)c1cccc(c1)C(=O)N(Cc1cc3n(n1)CCC3)[C@H](CC(C)(C)C)CO2 [Compound 455]
- activation at 10 µM [1]: > 600%

SMILES: Cc1cccc(C)c1-c1cc2nc(n1)NS(=O)(=O)c1cccc(c1)C(=O)N(Cc1ccn(C3CCC3)n1)[C@H](CC(C)(C)C)CO2 [Compound 461]
- EC50 (Table 12): < 1000 nM
- Emax [2]: > 60%

SMILES: Cc1cccc(C)c1-c1cc2nc(n1)NS(=O)(=O)c1cccc(c1)C(=O)N(Cc1ncc(N3CCC(C)(C)CC3)cn1)[C@H](CC1CC1)CO2 [Compound 462]
- EC50 (Table 12): < 1000 nM
- Emax [2]: > 60%

SMILES: Cc1cccc(C)c1-c1cc2nc(n1)NS(=O)(=O)c1cccc(c1)C(=O)N(Cc1cccc(N3CCC[C@H]3C)n1)[C@H](CC1CC1)CO2 [Compound 463]
- EC50 (Table 12): < 1000 nM
- Emax [2]: > 60%

SMILES: COCCN(C)c1cccc(CCN2C(=O)c3cccc(c3)S(=O)(=O)Nc3nc(cc(-c4c(C)cccc4C)n3)OC[C@H]2CC(C)(C)C)n1 [Compound 464]
- EC50 (Table 11): < 1000 nM
- Emax [3]: > 60%

SMILES: Cc1cccc(CN2C(=O)c3cccc(c3)S(=O)(=O)Nc3nc(cc(-c4c(C)cccc4C)n3)OC[C@H]2CC(C)(C)C)n1 [Compound 465]
- EC50 (Table 11): < 1000 nM
- Emax [3]: > 60%

SMILES: Cc1cccc(C)c1-c1cc2nc(n1)NS(=O)(=O)c1cccc(c1)C(=O)N(Cc1ccnc(N3CCOCC3)c1)[C@H](CC(C)(C)C)CO2 [Compound 466]
- activation at 10 µM [4]: > 60%
- Emax [5]: > 60%

SMILES: Cc1cccc(C)c1-c1cc2nc(n1)NS(=O)(=O)c1cccc(c1)C(=O)N(Cc1ccc(C3CCCCC3)c(C)n1)[C@H](CC(C)(C)C)CO2 [Compound 467]
- activation at 10 µM [4]: > 60%

SMILES: Cc1cccc(C)c1-c1cc2nc(n1)NS(=O)(=O)c1cccc(c1)C(=O)N(Cc1cccc(OCC(C)(C)C)n1)[C@H](CC(C)(C)C)CO2 [Compound 469]
- Emax [5]: > 60%

SMILES: COCCCNc1cccc(CN2C(=O)c3cccc(c3)S(=O)(=O)Nc3nc(cc(-c4c(C)cccc4C)n3)OC[C@H]2CC(C)(C)C)n1 [Compound 472]
- activation at 10 µM [4]: > 60%
- Emax [5]: > 60%

SMILES: Cc1cccc(C)c1-c1cc2nc(n1)NS(=O)(=O)c1cccc(c1)C(=O)N(CCc1ccc(N3CCC(C)(C)C3)nc1)[C@H](CC(C)(C)C)CO2 [Compound 473]
- EC50 (Table 11): < 1000 nM
- Emax [3]: > 60%

SMILES: COCCNc1cccc(CN2C(=O)c3cccc(c3)S(=O)(=O)Nc3nc(cc(-c4c(C)cccc4C)n3)OC[C@H]2CC(C)(C)C)n1 [Compound 475]
- Emax [5]: > 60%

SMILES: Cc1cccc(C)c1-c1cc2nc(n1)NS(=O)(=O)c1cccc(c1)C(=O)N(Cc1ccc(-c3ccccc3)cn1)[C@H](CC(C)(C)C)CO2 [Compound 476]
- HBE Max activity (%) (Table 10): +++ (+++ is >60%)
- EC50 (Table 10): 1000 to 3000 nM

SMILES: Cc1ccnc(CN2C(=O)c3cccc(c3)S(=O)(=O)Nc3nc(cc(-c4c(C)cccc4C)n3)OC[C@H]2CC(C)(C)C)n1 [Compound 479]
- activation at 10 µM [4]: > 60%
- Emax [5]: > 60%

SMILES: Cc1cccc(C)c1-c1cc2nc(n1)NS(=O)(=O)c1cccc(c1)C(=O)N(Cc1ccn(C(C)C)n1)[C@H](CC(C)(C)C)CO2 [Compound 480]
- Emax [5]: > 60%

SMILES: Cc1cccc(C)c1-c1cc2nc(n1)NS(=O)(=O)c1cccc(c1)C(=O)N(Cc1cnn(C(C)(C)C)c1)[C@H](CC(C)(C)C)CO2 [Compound 481]
- Emax [5]: > 60%

SMILES: Cc1cccc(C)c1-c1nc2nc(c1C)OC[C@@H](CC(C)(C)C)N(Cc1ncc(N(C)C)cc1N(C)C)C(=O)c1cccc(c1)S(=O)(=O)N2 [Compound 486]
- activation at 10 µM [4]: > 60%

SMILES: COCCN(C)c1cccc(CN2C(=O)c3cccc(c3)S(=O)(=O)Nc3nc(cc(-c4c(C)cccc4C)n3)OC[C@H]2CC(C)(C)C)n1 [Compound 488]
- EC50 (Table 10): < 1000 nM
- Emax [5]: > 60%

SMILES: Cc1cccc(C)c1-c1cc2nc(n1)NS(=O)(=O)c1cccc(c1)C(=O)N(Cc1cccc(N3CCCCC3)n1)[C@H](CC(C)(C)C)CO2 [Compound 489]
- EC50 (Table 10): < 1000 nM
- Emax [5]: > 60%

SMILES: CNc1cccc(CN2C(=O)c3cccc(c3)S(=O)(=O)Nc3nc(cc(-c4c(C)cccc4C)n3)OC[C@H]2CC(C)(C)C)n1 [Compound 490]
- activation at 10 µM [4]: > 60%
- EC50 (Table 10): < 1000 nM
- Emax [5]: > 60%

SMILES: Cc1cccc(C)c1-c1cc2nc(n1)NS(=O)(=O)c1cccc(c1)C(=O)N(Cc1cccc(N(C)C)n1)[C@H](CC(C)(C)C)CO2 [Compound 491]
- activation at 10 µM [4]: > 60%
- EC50 (Table 10): < 1000 nM
- Emax [5]: > 60%

SMILES: Cc1cccc(C)c1-c1cc2nc(n1)NS(=O)(=O)c1cccc(c1)C(=O)N(CC1CCN(c3ccncc3)CC1)[C@H](CC(C)(C)C)CO2 [Compound 492]
- activation at 10 µM [4]: > 60%

SMILES: Cc1cc(N(C)C)cnc1CN1C(=O)c2cccc(c2)S(=O)(=O)Nc2nc(cc(-c3c(C)cccc3C)n2)OC[C@H]1CC(C)(C)C [Compound 494]
- EC50 (Table 10): < 1000 nM
- Emax [5]: > 60%

SMILES: Cc1cccc(C)c1-c1cc2nc(n1)NS(=O)(=O)c1cccc(c1)C(=O)N(Cc1ccc(C3CCCCC3)cc1)[C@H](CC(C)(C)C)CO2 [Compound 495]
- EC50 (Table 10): 1000 to 3000 nM
- Emax [5]: > 60%

SMILES: Cc1cccc(C)c1-c1cc2nc(n1)NS(=O)(=O)c1cccc(c1)C(=O)N(Cc1ccc(C(C)(C)C)cn1)[C@H](CC(C)(C)C)CO2 [Compound 496]
- EC50 (Table 10): < 1000 nM
- Emax [5]: > 60%

SMILES: Cc1cccc(C)c1-c1cc2nc(n1)NS(=O)(=O)c1cccc(c1)C(=O)N(Cc1ccc(N(C)CC(C)(C)C)cn1)[C@H](CC(C)(C)C)CO2 [Compound 497]
- EC50 (Table 10): 1000 to 3000 nM
- Emax [5]: > 60%

Now from value to compound:

- activation at 10 µM [1]: > 600%
SMILES: COCC(C)N(C)c1ccnc(CN2C(=O)c3cccc(c3)S(=O)(=O)Nc3nc(cc(-c4c(C)cccc4C)n3)OC[C@H]2CC(C)(C)C)n1 (some centres unmarked) [Compound 448]

- EC50 (Table 12): < 1000 nM
- Emax [2]: > 60%
SMILES: Cc1cccc(C)c1-c1cc2nc(n1)NS(=O)(=O)c1cccc(c1)C(=O)N(Cc1nccc(N(C)[C@@H]3CCC34CCC4)n1)[C@H](CC(C)(C)C)CO2 [Compound 451]

- activation at 10 µM [1]: > 600%
SMILES: Cc1cccc(C)c1-c1cc2nc(n1)NS(=O)(=O)c1cccc(c1)C(=O)N(Cc1cc3n(n1)CCCO3)[C@H](CC(C)(C)C)CO2 [Compound 456]

- EC50 (Table 12): < 1000 nM
- Emax [2]: > 60%
SMILES: Cc1cccc(C)c1-c1cc2nc(n1)NS(=O)(=O)c1cccc(c1)C(=O)N(Cc1nc(N(C)CC(C)(C)C)ccc1C(F)(F)F)[C@H](CC(C)(C)C)CO2 [Compound 457]

- activation at 10 µM [1]: > 600%
SMILES: Cc1cccc(C)c1-c1cc2nc(n1)NS(=O)(=O)c1cccc(c1)C(=O)N(Cc1nc(N(C)C(C)C)ccc1C(F)(F)F)[C@H](CC(C)(C)C)CO2 [Compound 458]

- EC50 (Table 12): < 1000 nM
- Emax [2]: > 60%
SMILES: Cc1cccc(C)c1-c1cc2nc(n1)NS(=O)(=O)c1cccc(c1)C(=O)N(Cc1nccc(N(C)C(C)C)n1)[C@H](CC1CC1)CO2 [Compound 459]

- EC50 (Table 12): < 1000 nM
- Emax [2]: > 60%
SMILES: Cc1cccc(C)c1-c1cc2nc(n1)NS(=O)(=O)c1cccc(c1)C(=O)N(Cc1ccn(C3CCCC3)n1)[C@H](CC(C)(C)C)CO2 [Compound 460]

- Emax [5]: > 60%
SMILES: Cc1cccc(C)c1-c1cc2nc(n1)NS(=O)(=O)c1cccc(c1)C(=O)N(Cc1cccc(-n3ccc(C(C)(C)C)n3)n1)[C@H](CC(C)(C)C)CO2 [Compound 470]

- Emax [5]: > 60%
SMILES: Cc1cccc(C)c1-c1cc2nc(n1)NS(=O)(=O)c1cccc(c1)C(=O)N(Cc1cccc(NCC(C)(C)C)n1)[C@H](CC(C)(C)C)CO2 [Compound 471]

- EC50 (Table 11): < 1000 nM
- Emax [3]: > 60%
SMILES: Cc1cccc(C)c1-c1cc2nc(n1)NS(=O)(=O)c1cccc(c1)C(=O)N(Cc1cccc(N3CCC(C)(C)CC3)n1)[C@H](CC(C)(C)C)CO2 [Compound 474]

- Emax [5]: > 60%
SMILES: Cc1cccc(C)c1-c1cc2nc(n1)NS(=O)(=O)c1cccc(c1)C(=O)N(Cc1ccc(NCC(C)(C)C)cn1)[C@H](CC(C)(C)C)CO2 [Compound 477]

- Emax [5]: > 60%
SMILES: Cc1cccc(C)c1-c1cc2nc(n1)NS(=O)(=O)c1cccc(c1)C(=O)N(Cc1ccc(N3CCN(C)CC3)cn1)[C@H](CC(C)(C)C)CO2 [Compound 478]

- activation at 10 µM [4]: > 60%
SMILES: Cc1cccc(C)c1-c1cc2nc(n1)NS(=O)(=O)c1cccc(c1)C(=O)N(Cc1c(C)nn(C(C)(C)C)c1C)[C@H](CC(C)(C)C)CO2 [Compound 482]

- activation at 10 µM [4]: > 60%
SMILES: Cc1cccc(C)c1-c1cc2nc(n1)NS(=O)(=O)c1cccc(c1)C(=O)N(Cc1c(C)n[nH]c1C)[C@H](CC(C)(C)C)CO2 [Compound 485]

- Emax [5]: > 60%
SMILES: Cc1cccc(C)c1-c1cc2nc(n1)NS(=O)(=O)c1cccc(c1)C(=O)N(Cc1cnn(CC(C)C)c1)[C@H](CC(C)(C)C)CO2 [Compound 487]

- EC50 (Table 10): < 1000 nM
- Emax [5]: > 60%
SMILES: Cc1cccc(C)c1-c1cc2nc(n1)NS(=O)(=O)c1cccc(c1)C(=O)N(CC1CCN(c3ccccn3)CC1)[C@H](CC(C)(C)C)CO2 [Compound 493]

- EC50 (Table 10): < 1000 nM
- Emax [5]: > 60%
SMILES: Cc1cccc(C)c1-c1cc2nc(n1)NS(=O)(=O)c1cccc(c1)C(=O)N(Cc1ccc(N3CCOCC3)cc1)[C@H](CC(C)(C)C)CO2 [Compound 498]
